Data reported in ChEMBL document CHEMBL1201862, “PubChem BioAssay data set” (2004).
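Grown in 96-well plates, cells were treated for 48 hours with each compound at five concentrations. Insufficient inhibition: endpoint recorded as highest concentration tested. Here, GI50 denotes the concentration required for 50% inhibition of growth.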 Active and inactive are the calls of the source. Cut-off read from the data, not from the text of the source: active = GI50 up to about 1.1 µM and inactive = higher.

How the values were obtained:
Assay in all cases: NCI-60 cell line screen, 48 h
A549 = system: A549
BT-549 = system: BT-549
EKVX = system: EKVX
HCT-116 = system: HCT-116
Hs-578T = system: Hs-578T
IGROV-1 = system: IGROV-1
MDA-MB-231 = system: MDA-MB-231
Malme-3M = system: Malme-3M
NCI-H522 = system: NCI-H522
NCI/ADR-RES = system: NCI/ADR-RES
OVCAR-5 = system: OVCAR-5
SF-295 = system: SF-295
SF-539 = system: SF-539
SR = system: SR
T47D = system: T47D
UO-31 = system: UO-31
LOX IMVI = system: LOX IMVI
OVCAR-4 = system: OVCAR-4
SNB-75 = system: SNB-75
HL-60 = system: HL-60

Measured: GI50

CCOC(=O)[C@@H]1C[C@H]1c1ccc(O)c(O)c1
inactive: A549 41.3 µM | BT-549 43.4 µM | EKVX > 100 µM | HCT-116 14.4 µM | Hs-578T 28.4 µM | IGROV-1 24.4 µM | MDA-MB-231 23.2 µM | Malme-3M 31.8 µM | NCI-H522 16.4 µM | NCI/ADR-RES 43.3 µM | OVCAR-5 > 100 µM | SF-295 > 100 µM | SF-539 91 µM | SR 45.3 µM | T47D 30.1 µM | UO-31 31.3 µM

O=C1CSC2(CCN(CCCN3c4ccccc4Sc4ccc(Cl)cc43)CC2)N1
inactive: A549 10.1 µM | BT-549 12.1 µM | EKVX 9.31 µM | HCT-116 6.14 µM | Hs-578T 10.4 µM | IGROV-1 7.78 µM | LOX IMVI 3.88 µM | MDA-MB-231 7.06 µM | Malme-3M 12 µM | NCI-H522 10.1 µM | NCI/ADR-RES 4.9 µM | OVCAR-4 10.5 µM | OVCAR-5 11.9 µM | SF-295 10.3 µM | SF-539 13.1 µM | SNB-75 7.43 µM | T47D 3.57 µM | UO-31 6.75 µM

Cc1ccc(C2=Nc3c(c(C)nn3-c3ccccc3)N=C(C(=O)O)C2)cc1
inactive: A549 > 10 µM | BT-549 > 10 µM | EKVX > 10 µM | HCT-116 > 10 µM | HL-60 > 10 µM | Hs-578T > 10 µM | IGROV-1 > 10 µM | LOX IMVI > 10 µM | MDA-MB-231 > 10 µM | Malme-3M > 10 µM | NCI-H522 > 10 µM | NCI/ADR-RES > 10 µM | OVCAR-4 > 10 µM | OVCAR-5 > 10 µM | SF-295 > 10 µM | SF-539 > 10 µM | SNB-75 > 10 µM | T47D > 10 µM | UO-31 > 10 µM

COC(=O)c1cc(C)ccc1/C=C1\Cc2cccc(C)c2C1=O
inactive: A549 28.2 µM | BT-549 17.6 µM | EKVX 33.1 µM | HCT-116 18.1 µM | HL-60 19.7 µM | Hs-578T 57.5 µM | IGROV-1 76.9 µM | LOX IMVI 8.77 µM | MDA-MB-231 26.7 µM | Malme-3M 20.5 µM | NCI-H522 10.5 µM | OVCAR-4 68.5 µM | OVCAR-5 78.7 µM | SF-295 30.9 µM | SF-539 67.3 µM | SNB-75 35.1 µM | SR 24.7 µM | T47D 6.68 µM | UO-31 44.7 µM

Cc1ccc2c(n1)C(=O)c1ccccc1C2=O
inactive: A549 21.2 µM | BT-549 32.4 µM | EKVX 27.5 µM | HCT-116 22.9 µM | HL-60 15.4 µM | Hs-578T 72.3 µM | IGROV-1 24.3 µM | LOX IMVI 17.6 µM | MDA-MB-231 23.3 µM | Malme-3M 9.35 µM | NCI-H522 21.7 µM | NCI/ADR-RES 24.4 µM | OVCAR-4 18.7 µM | OVCAR-5 21.9 µM | SF-295 25.8 µM | SF-539 > 56.5 µM | SNB-75 29.8 µM | T47D 30.3 µM | UO-31 32.5 µM

N#CCCN(CCC#N)c1ccc(/C=C2\N=C(c3ccccc3)N(c3ccccn3)C2=O)cc1
inactive: A549 > 100 µM | BT-549 > 100 µM | EKVX > 100 µM | HCT-116 > 100 µM | HL-60 > 100 µM | Hs-578T > 100 µM | IGROV-1 > 100 µM | LOX IMVI > 100 µM | MDA-MB-231 > 100 µM | Malme-3M > 100 µM | NCI/ADR-RES > 100 µM | OVCAR-4 > 100 µM | OVCAR-5 > 100 µM | SF-295 > 100 µM | SF-539 > 100 µM | T47D > 100 µM | UO-31 > 100 µM

CC1(C)OC2CN(C(=O)OCc3ccccc3)C(CO)C2O1 (configuration not stated)
inactive: A549 > 100 µM | BT-549 > 100 µM | EKVX > 100 µM | HCT-116 > 100 µM | HL-60 > 100 µM | Hs-578T > 100 µM | IGROV-1 > 100 µM | LOX IMVI > 100 µM | MDA-MB-231 > 100 µM | Malme-3M > 100 µM | NCI-H522 > 100 µM | NCI/ADR-RES > 100 µM | OVCAR-4 > 100 µM | OVCAR-5 > 100 µM | SF-295 > 100 µM | SF-539 > 100 µM | SNB-75 > 100 µM | T47D > 100 µM | UO-31 > 100 µM

SCCCSCCSCCCSCCS
inactive: A549 > 100 µM | BT-549 > 100 µM | EKVX > 100 µM | HCT-116 > 100 µM | HL-60 13.3 µM | IGROV-1 > 100 µM | LOX IMVI > 100 µM | MDA-MB-231 70.6 µM | NCI-H522 > 100 µM | NCI/ADR-RES > 100 µM | OVCAR-4 > 100 µM | OVCAR-5 > 100 µM | SF-295 > 100 µM | SF-539 > 100 µM | SNB-75 45.6 µM | SR 55.7 µM | T47D > 100 µM | UO-31 80.9 µM

O=C(c1ccc(Cl)cc1)N(C(=S)OC12CC3CC(CC(C3)C1)C2)c1ccccc1
inactive: A549 31.9 µM | BT-549 43.2 µM | EKVX 26.6 µM | HCT-116 33.5 µM | HL-60 17 µM | Hs-578T 39.9 µM | MDA-MB-231 29.4 µM | Malme-3M 54.3 µM | NCI-H522 21.1 µM | NCI/ADR-RES 36.5 µM | OVCAR-4 39.5 µM | OVCAR-5 45.6 µM | SF-295 36.8 µM | SF-539 30.7 µM | SNB-75 42.9 µM | T47D 54.5 µM | UO-31 27 µM

Oc1[nH]c(Nc2ccc(Cl)c(C(F)(F)F)c2)nc2ncnc1-2
inactive: A549 > 100 µM | BT-549 36.6 µM | EKVX 53.1 µM | HCT-116 34.7 µM | Hs-578T 38.5 µM | IGROV-1 35.7 µM | LOX IMVI 25.5 µM | MDA-MB-231 42.2 µM | Malme-3M 30.3 µM | NCI-H522 14.2 µM | NCI/ADR-RES > 100 µM | OVCAR-4 72.1 µM | OVCAR-5 65.9 µM | SF-295 > 100 µM | SF-539 26 µM | SNB-75 33.9 µM | T47D 24.5 µM | UO-31 > 100 µM

CNc1c2c(c3nc4ccccc4c4c3c1N=C4)NCCC2=O [PLAKINIDINE A]
inactive: A549 3.52 µM | BT-549 7.74 µM | EKVX > 10 µM | HCT-116 1.77 µM | Hs-578T > 10 µM | IGROV-1 4.42 µM | MDA-MB-231 3.86 µM | Malme-3M 4.65 µM | NCI-H522 3.27 µM | NCI/ADR-RES 2.83 µM | OVCAR-4 7.83 µM | OVCAR-5 5.83 µM | SF-295 4.5 µM | SF-539 3.9 µM | SNB-75 2.87 µM | T47D 3.78 µM | UO-31 3.56 µM
